Where a name gives a salt, the structure may show the parent alone.
| melting point | Compound |
| --- | --- |
| 287 °C | CCN1CCc2sc3ncn(CCN4CCN(c5cccc6c5CCCC6)CC4)c(=O)c3c2C1 (as salt: hydrochloride) [Example 12, 3,4,5,6,7,8-Hexahydro-6-ethyl-3-[2-(4-tetralin-5-yl-piperazin-1-yl)ethyl]pyrido[3′,4′:4,5]thieno[2,3-d]pyrimidin-4-one] |
| 66 to 67 °C | COc1ccccc1N1CCN(CCCn2cnc3sc4c(c3c2=O)CCN(Cc2ccccc2)C4)CC1 [Example 18, 3,4,5,6,7,8-Hexahydro-7-benzyl-3-[3-(4-(2-methoxyphenyl)-piperazin-1-yl)propyl]pyrido[4′,3′:4,5]thieno[2,3-d]-pyrimidin-4-one] |
| 97 to 100 °C | CN1CCc2c(sc3ncn(CCN4CCN(c5cc(Cl)cc(Cl)c5)CC4)c(=O)c23)C1 [Example 46, 3,4,5,6,7,8-Hexahydro-7-methyl-3-[2-(4-(3,5-dichlorophenyl)-piperazin-1-yl)ethyl]pyrido[4′,3′:4,5]thieno[2,3-d]pyrimidin-4-one] |
| 90 to 91 °C | Cc1ccc(C)c(N2CCN(CCn3cnc4sc(C(=O)N(C)C)c(C)c4c3=O)CC2)c1 [Example 31, 3,4-Dihydro-5-methyl-6-dimethylcarbamoyl-3-[2-(4-(2,5-dimethylphenyl)piperazin-1-yl)ethyl]thieno-[2,3-d]pyrimidin-4-one] |
| 152 °C | CCOC(=O)N1Cc2sc3ncn(CCN4CCN(c5ccccc5C)CC4)c(=O)c3c2C1 [Example 38, 3,4,5,7-Tetrahydro-6-carboethoxy-3-[2-(4-(2-methylphenyl)-piperazin-1-yl)ethyl]pyrrolo[3′,4′:4,5]thieno-[2,3-d]pyrimidin-4-one] |
| 172 °C | CCOC(=O)N1Cc2sc3ncn(CC(C)N4CCN(c5ccccc5Cl)CC4)c(=O)c3c2C1 (stereo not shown) [Example 39, 3,4,5,7-Tetrahydro-6-carboethoxy-3-[2-(4-(2-chlorophenyl)-piperazin-1-yl)propyl]pyrrolo[3′,4′:4,5]thieno-[2,3-d]pyrimidin-4-one] |
| 121 to 123 °C | CN1CCc2c(sc3ncn(CCN4CCN(c5ccccc5)CC4)c(=O)c23)C1 [Example 145, 3,4,5,6,7,8-Hexahydro-7-methyl-3-[2-(4-phenylpiperazin-1-yl)ethyl]pyrido[4′,3′:4,5]thieno[2,3-d]pyrimidin-4-one] |
| 138 to 140 °C | Cc1cccc(N2CCN(CCn3cnc4sc5c(c4c3=O)CCN(C)C5)CC2)n1 [Example 126, 3,4,5,6,7,8-Hexahydro-7-methyl-3-[2-(4-(6-methylpyridin-2-yl)piperazin-1-yl)ethyl]pyrido[4′,3′:4,5]thieno[2,3-d]-pyrimidin-4-one] |
| 153 °C | Cc1c(C(=O)N(C)C)sc2ncn(CCN3CCN(c4cccc5c4CCC5)CC3)c(=O)c12 [Example 14, 3,4-Dihydro-5-methyl-6-dimethylcarbamoyl-3-[2-(4-indan-4-ylpiperazin-1-yl)ethyl]thieno[2,3-d]pyrimidin-4-one] |
| 190 to 192 °C | CCOC(=O)N1Cc2sc3ncn(CCN4CCN(c5cccc6ccccc56)CC4)c(=O)c3c2C1 [Example 8, 3,4,5,7-Tetrahydro-6-carboethoxy-3-[2-(4-(1-naphthyl)-piperazin-1-yl)ethyl]pyrrolo[3′,4′:4,5]thieno[2,3-d]-pyrimidin-4-one] |
| 190 °C | CCOC(=O)N1Cc2sc3ncn(CCCN4CCN(c5ccccc5C#N)CC4)c(=O)c3c2C1 [Example 43, 3,4,5,7-Tetrahydro-6-carboethoxy-3-[3-(4-(2-cyanophenyl)-piperazin-1-yl)propyl]pyrrolo[3′,4′:4,5]thieno[2,3-d]-pyrimidin-4-one] |
| 291 to 292 °C | CN1CCc2c(sc3ncn(CCN4CCN(c5nccc(C(F)(F)F)n5)CC4)c(=O)c23)C1 [Example 127, 3,4,5,6,7,8-Hexahydro-7-methyl-3-[2-(4-(4-trifluoromethyl-pyrimidin-2-yl)piperazin-1-yl)ethyl]pyrido[4′,3′:4,5]-thieno[2,3-d]pyrimidin-4-one] |
| 157 to 158 °C | CN1CCc2c(sc3ncn(CCN4CCN(c5ccc(F)c6ccccc56)CC4)c(=O)c23)C1 [Example 140, 3,4,5,6,7,8-Hexahydro-7-methyl-3-[2-(4-(4-fluoronaphth-1-yl)-piperazin-1-yl)ethyl]pyrido[4′,3′:4,5]thieno[2,3-d]-pyrimidin-4-one] |
| 170 to 171 °C | COc1ccc(N2CCN(CCn3cnc4sc(C(=O)N(C)C)c(C)c4c3=O)CC2)c(OC)c1 [Example 30, 3,4-Dihydro-5-methyl-6-dimethylcarbamoyl-3-[2-(4-(2,4-dimethoxyphenyl)piperazin-1-yl)ethyl]thieno-[2,3-d]pyrimidin-4-one] |
| 140 to 141 °C | CN1CCc2c(sc3ncn(CCN4CCN(c5ccc6ccccc6c5)CC4)c(=O)c23)C1 [Example 73, 3,4,5,6,7,8-Hexahydro-7-methyl-3-[2-(4-naphth-2-ylpiperazin-1-yl)ethyl]pyrido[4′,3′:4,5]thieno[2,3-d]pyrimidin-4-one] |
| 168 to 170 °C | COc1ccccc1N1CCN(CCn2cnc3sc4c(c3c2=O)CCNC4)CC1 [Example 115, 3,4,5,6,7,8-Hexahydro-3-[2-(4-(2-methoxyphenyl)-piperazin-1-yl)ethyl]pyrido[4′,3′:4,5]thieno[2,3-d]pyrimidin-4-one] |

| melting point | Compound |
| --- | --- |
| 174 °C | Cc1c(C(=O)N(C)C)sc2ncn(CCN3CCN(c4cccc5c4CCCC5)CC3)c(=O)c12 [Example 13, 3,4-Dihydro-5-methyl-6-dimethylcarbamoyl-3-[2-(4-tetralin-5-ylpiperazin-1-yl)ethyl]thieno[2,3-d]pyrimidin-4-one] |
| 161 to 163 °C | CN1CCc2c(sc3ncn(CCCN4CCN(c5ncccn5)CC4)c(=O)c23)C1 [Example 64, 3,4,5,6,7,8-Hexahydro-7-methyl-3-[3-(4-pyrimidin-2-yl-piperazin-1-yl)propyl]pyrido[4′,3′:4,5]thieno[2,3-d]-pyrimidin-4-one] |
| 143 to 145 °C | CN1CCc2c(sc3ncn(CCN4CCN(c5ccc6ccccc6n5)CC4)c(=O)c23)C1 [Example 65, 3,4,5,6,7,8-Hexahydro-7-methyl-3-[2-(4-quinolin-2-yl-piperazin-1-yl)ethyl]pyrido[4′,3′:4,5]thieno[2,3-d]-pyrimidin-4-one] |
| 112 to 114 °C | COc1ccccc1N1CCN(CCCn2cnc3sc4c(c3c2=N)CCN(C)C4)CC1 [Example 15, 3,4,5,6,7,8-Hexahydro-7-methyl-3-[3-(4-(2-methoxyphenyl)-piperazin-1-yl)propyl]pyrido[4′,3′:4,5]thieno[2,3-d]pyrimidin-4-imine] |
| 146 °C | Cc1c(C(=O)N(C)C)sc2ncn(CCN3CCN(c4cccc(C(F)(F)F)c4)CC3)c(=O)c12 [Example 7, 3,4-Dihydro-5-methyl-6-dimethylcarbamoyl-3-[2-(4-(3-trifluoromethylphenyl)piperazin-1-yl)ethyl]thieno[2,3-d]-pyrimidin-4-one] |
| 295 to 300 °C | Cc1c(C(=O)N(C)C)sc2ncn(CCN3CCN(c4ncnc5ccccc45)CC3)c(=O)c12 (as salt: hydrochloride) [Example 29, 3,4-Dihydro-5-methyl-6-dimethylcarbamoyl-3-[2-(4-quinazolin-4-ylpiperazin-1-yl)ethyl]thieno[2,3-d]pyrimidin-4-one] |
| 70 to 71 °C | O=c1c2c3c(sc2ncn1CCN1CCN(c2ccccc2)CC1)CN(Cc1ccccc1)CC3 [Example 19, 3,4,5,6,7,8-Hexahydro-7-benzyl-3-[2-(4-phenylpiperazin-1-yl)-ethyl]pyrido[4′,3′:4,5]thieno[2,3-d]pyrimidin-4-one] |
| 139 to 141 °C | Cc1ccc(N2CCN(CCn3cnc4sc5c(c4c3=O)CCN(C)C5)CC2)c2ccccc12 [Example 138, 3,4,5,6,7,8-Hexahydro-7-methyl-3-[2-(4-(4-methylnaphth-1-yl)piperazin-1-yl)ethyl]pyrido[4′,3′:4,5]thieno[2,3-d]-pyrimidin-4-one] |
| 146 to 148 °C | CN1CCc2c(sc3ncn(CCN4CCN(c5ncccn5)CC4)c(=O)c23)C1 [Example 27, 3,4,5,6,7,8-Hexahydro-7-methyl-3-[2-(4-pyrimidin-2-ylpiperazin-1-yl)ethyl]pyrido[4′,3′:4,5]thieno[2,3-d]-pyrimidin-4-one] |
| 170 to 172 °C | COc1ccccc1N1CCN(CCn2cnc3sc4c(c3c2=O)CCN(C(C)=O)C4)CC1 [Example 116, 3,4,5,6,7,8-Hexahydro-7-acetyl-3-[2-(4-(2-methoxyphenyl)-piperazin-1-yl)ethyl]pyrido[4′,3′:4,5]thieno[2,3-d]-pyrimidin-4-one] |
| 276 to 280 °C | CCN1CCc2sc3ncn(CCN4CCCN(c5cccc6ccccc56)CC4)c(=O)c3c2C1 (as salt: hydrochloride) [Example 17, 3,4,5,6,7,8-Hexahydro-6-ethyl-3-[2-(4-naphth-1-ylhexahydro-1,4-diazepin-1-yl)ethyl]pyrido[3′,4′:4,5]thieno[2,3-d]-pyrimidin-4-one] |
| 161 to 163 °C | CN1CCc2c(sc3ncn(CCCN4CCN(c5ncccn5)CC4)c(=N)c23)C1 [Example 36, 3,4,5,6,7,8-Hexahydro-7-methyl-3-[3-(4-pyrimidin-2-yl-piperazin-1-yl)propyl]pyrido[4′,3′:4,5]thieno[2,3-d]-pyrimidin-4-imine] |
| 135 to 137 °C | COc1ccccc1N1CCN(CCn2c(O)nc3sc4c(c3c2=O)CCN(C(C)=O)C4)CC1 [Example 121, 3,4,5,6,7,8-Hexahydro-7-acetyl-2-hydroxy-3-[2-(4-(2-methoxyphenyl)piperazin-1-yl)ethyl]pyrido[4′,3′:4,5]thieno-[2,3-d]pyrimidin-4-one] |
| 176 to 178 °C | COc1ccccc1N1CCN(CCn2c(C)nc3sc4c(c3c2=O)CCN(C)C4)CC1 [Example 120, 3,4,5,6,7,8-Hexahydro-2,7-dimethyl-3-[2-(4-(2-methoxyphenyl)-piperazin-1-yl)ethyl]pyrido[4′,3′:4,5]thieno-[2,3-d]pyrimidin-4-one] |
| 136 to 138 °C | Cc1ccnc(N2CCN(CCn3cnc4sc5c(c4c3=O)CCN(C)C5)CC2)n1 [Example 153, 3,4,5,6,7,8-Hexahydro-7-methyl-3-[2-(4-(4-methylpyrimidin-2-yl)piperazin-1-yl)ethyl]pyrido[4′,3′:4,5]thieno[2,3-d]-pyrimidin-4-one] |

From patent US6387912B1, “Utilization of pyrimidine derivatives for preventing and treating cerebral ischaemia” (BASF Aktiengesellschaft, priority 1999, dated 2002)
